Source: PMC3933693, “Novel Inhibitors of Mitochondrial sn-Glycerol 3-phosphate Dehydrogenase” (PLoS ONE, 2014)
Where “and” joins values, the source holds several entries; their conditions need not be identical. Identical values can stand only once.

Key:
cortical synaptosomes = test: Synaptosomal respiration (Seahorse XF24); format: cell-based, mouse; details: 100 µM iGP-1, 0.5 mM aminooxyacetate
Description: Synaptosomal respiration was tested in the Seahorse XF24 using published protocols, [41]. Synaptosomes (20 or 25 µg protein) were attached to polyethyleneimine and Geltrex-coated Seahorse plates by centrifugation in ionic medium, [41] containing 10 mM glucose. Attachment buffer was carefully replaced with ionic buffer containing DMSO, 100 µM iGP-1, 0.5 mM aminooxyacetate, or iGP-1 with aminooxyacetate, and either 10 mM pyruvate or 15 mM glucose. Plates were equilibrated for 20 min at 37°C then loaded into the instrument followed by measurement of basal respiration and injection of 5 µM FCCP (to induce maximal, uncoupled respiration) with 4 µg ⋅ mL^−1 oligomycin (to prevent compensatory reversal of ATP synthase). In some experiments, 10 mM oxamate was added with the FCCP/oligomycin to minimize regeneration of cytosolic NAD^+ by lactate dehydrogenase. Inhibition of the malate-aspartate shuttle was defined as the difference between maximal rates ± aminooxyacetate, expressed as % of control. Inhibition of the glycerol phosphate shuttle was the difference between maximal rates with aminooxyacetate ± iGP-1, as % of control.

[1] = tested on: skeletal muscle mitochondria; test: Mitochondrial membrane potential (ΔΨm, TMRM) powered by glutamate plus malate; format: biochemical, rat
STHdhQ7 cells = test: Live cell imaging of iGP-1 fluorescence (ability to cross cellular membranes); format: cell-based; details: 100 µM; intrinsic fluorescence in live cells
Description: The ability of iGP-1 to cross cellular membranes was evaluated in STHdhQ7 cells cultured at 33°C as described. Cells were seeded on collagen-coated, Lab-Tek chambered coverglass (Nunc) 48 h before use. Prior to imaging, cells were cultured for 45 min with 65 nM LysoTracker Red ±250 nM bafilomycin A1. Medium was then replaced with imaging buffer (120 mM NaCl, 3.5 mM KCl, 0.4 mM KH2PO4, 20 mM TES, 5 mM NaHCO3, 1.2 mM Na2SO4, 1.5 mM CaCl2, 0.5 mM MgCl2, 2 mM Glucose, and 0.2% BSA, pH 7.4) containing DMSO, 250 nM bafilomycin A1 or 100 µM iGP-1. Cells were imaged on a Nikon Eclipse Ti-PFS inverted microscope equipped with a Cascade 512B camera (Photometrics, Tucson, AZ), a Plan Fluor 100X/1.3 oil objective, an LB-LS17 Xe-arc light source (attenuated), 10–3 excitation and emission filter wheels (Sutter Instruments, Novato, CA), and an MS-2000 linear encoded motorized stage (ASI, Eugene, OR). The filter sets, given as excitation, dichroic mirror, emission in nm/bandwidth, were, for iGP-1 (1 s exposure), 340/26, 409, 460/80 and for LysoTracker Red (100 ms exposure), 543/22, 562, 588/21 (all from Semrock, Rochester, NY). Image acquisition was controlled by NIS Elements 4.0 (Nikon, Melville, NY). Images of cell-free wells containing buffer with DMSO or iGP-1 were used for background subtraction in Image Analyst MKII (Novato, CA).

[2] = tested on: ubiquinone-binding site of complex I (site IQ); test: Site-specific H2O2 production from site IQ in skeletal muscle mitochondria; format: biochemical, rat;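 note: H2O2 from superoxide detected by Amplex UltraRed fluorescence with added superoxide dismutase and horseradish peroxidase, endpoint read 30–40 min after substrate addition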
mGPDH = target: T1, mGPDH (Rattus norvegicus, UniProt P35571); test: mGPDH enzymatic activity (DCPIP-linked reduction by glycerol phosphate) in frozen-thawed skeletal muscle mitochondria; format: biochemical
T1 construct: from tissue; host or cells: skeletal muscle mitochondria
T1 sequence (P35571 43-727): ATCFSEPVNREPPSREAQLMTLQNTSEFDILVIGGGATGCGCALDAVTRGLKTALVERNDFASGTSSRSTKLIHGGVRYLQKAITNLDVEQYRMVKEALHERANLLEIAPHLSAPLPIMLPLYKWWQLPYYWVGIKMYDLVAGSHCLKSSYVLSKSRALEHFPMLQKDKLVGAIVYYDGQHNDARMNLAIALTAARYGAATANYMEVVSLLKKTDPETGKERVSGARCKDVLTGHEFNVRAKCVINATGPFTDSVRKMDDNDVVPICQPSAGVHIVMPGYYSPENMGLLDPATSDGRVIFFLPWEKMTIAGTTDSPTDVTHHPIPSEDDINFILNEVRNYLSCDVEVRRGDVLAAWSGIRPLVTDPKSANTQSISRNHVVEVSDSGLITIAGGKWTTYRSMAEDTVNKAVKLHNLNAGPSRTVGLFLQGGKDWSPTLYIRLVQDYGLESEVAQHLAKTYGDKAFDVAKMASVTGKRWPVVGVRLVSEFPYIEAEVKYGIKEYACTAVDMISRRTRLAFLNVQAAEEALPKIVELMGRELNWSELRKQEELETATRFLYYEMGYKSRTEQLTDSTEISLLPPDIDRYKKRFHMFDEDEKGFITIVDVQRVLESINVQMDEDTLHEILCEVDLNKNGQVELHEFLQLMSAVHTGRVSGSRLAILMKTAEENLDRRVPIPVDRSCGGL
Description: Activity of mGPDH in frozen-thawed skeletal muscle mitochondria was measured as 2,6-dichlorophenolindophenol (DCPIP)-linked reduction by glycerol phosphate as described previously in the presence of 1 µM free calcium. Linear rates of change in absorbance (λ = 600 nm) were measured on the PHERAstar microplate reader and converted to rates of DCPIP reduction using an extinction coefficient of 21 mM^−1 ⋅ cm^−1 and a calculated pathlength of 0.6 cm. Kinetic parameters and inhibitor constants were determined by co-varying glycerol phosphate and novel inhibitors according to recommended procedures and calculated for each data set using GraphPad Prism. Vmax and Km were determined using hyperbolic curves fit to the Michaelis-Menten equation: rate = (Vmax ⋅ [substrate]) ⋅ (K m+[substrate])^ −1. Hill Slope and IC50 were determined using unconstrained, sigmoidal dose-response curve fits of % remaining activity against concentration of iGP. K ic and K iu were determined using plots of rate^−1 vs iGP and GP ⋅ rate^−1 vs iGP, respectively. Linear regression analysis yielded an average x-coordinate at which the best-fit lines intersect. These x-coordinates correspond to -K ic and -K iu in their respective plots. The apparent Vmax of mGPDH is dependent upon the concentration of DCPIP used, [38]. Therefore, to determine the maximal activity of mGPDH in isolated synaptosomes, DCPIP was replaced by 1 mM potassium ferricyanide and linear rates of change in absorbance (λ = 420 nm) were converted to rates of ferricyanide reduction using an extinction coefficient of 1.04 mM^−1 ⋅ cm^−1 and a calculated pathlength of 0.6 cm.

O=C(O)CCC(=O)Nc1ccc(-c2nc3ccccc3[nH]2)cc1 [iGP-1]
effect on basal or maximal respiration with pyruvate (cortical synaptosomes; 10 mM pyruvate): no effect | effect on basal and maximal respiration with glucose (cortical synaptosomes; 15 mM glucose, no oxamate): no effect | ΔΨm with Glu + Mal + Nig (% change at 80 μM) ([1]; 80 μM, 5 mM glutamate, 5 mM malate, with nigericin): 4% | ΔΨm with Glu + Mal (% change at 80 μM) ([1]; 80 μM, 5 mM glutamate, 5 mM malate, without nigericin): 15% | ΔΨm (% change from DMSO) ([1]; primary screen, ∼2.5 µM, average of duplicates, glutamate and malate): 0.154% | effect on ΔΨm powered by glutamate and malate ([1]; without or with nigericin): no effect | cell permeability (STHdhQ7 cells): readily crosses cellular membranes | IQ H2O2 production with 5 mM Suc (% change at 80 μM) ([2]; 80 μM, 5 mM succinate): -9% | concentration above which H2O2 production by site IQ starts to be inhibited ([2]; Fig. 6B): above 10 µM | IQ (% change from DMSO) ([2]; primary screen, ∼2.5 µM, average of duplicates, 5 mM succinate): 1.0% | mGPDH Activity Hill Slope (mGPDH; 1 µM free calcium): 0.92 and 0.92±0.08 | IC50 (mGPDH; 1 µM free calcium, Fig. 9A): 6.3 ± 0.7 µM | effect on mGPDH enzymatic activity (mGPDH; all concentrations tested, Fig. 5): significantly inhibited | K iu (uncompetitive inhibitor dissociation constant) (mGPDH; co-varying glycerol phosphate and inhibitor): 14.6 ± 1.5 µM | Ki (mGPDH; co-varying glycerol phosphate and inhibitor, read-out: K ic (competitive inhibitor dissociation constant)): 9.5 ± 1.1 µM
